Reference: publication PMC10385868 (Viruses, 2023)
≈ marks a conversion by molar mass, not a printed value. Where “and” joins values, the source holds several entries; their conditions need not be identical. Identical values can stand only once. Like-named read-outs stand apart in the source and are kept apart here.

Experiments:
VEEV nsP2 protease [1] = biological target: T1, VEEV nsP2 protease (Venezuelan equine encephalitis virus, UniProt P27282); assay: biochemical; type: biochemical
VEEV-Trd = assay: microbe, parasite or virus in culture; type: cell-based, Venezuelan equine encephalitis virus
[2] = rat, microsomes
VEEV-Trinidad = assay: microbe, parasite or virus in culture; type: cell-based; details: Venezuelan equine encephalitis virus
in vitro [3] = assay: in vitro
in vitro [4] = details: African green monkey
VEEV-infected HeLa cells = assay: microbe, parasite or virus in culture; type: cell-based, Venezuelan equine encephalitis virus
in vitro [5] = details: human
EEEV [6] = assay: microbe, parasite or virus in culture; type: cell-based; details: Eastern equine encephalitis virus, A549, read-out: EEEV EC50
VEEV-TC83 = assay: microbe, parasite or virus in culture; type: cell-based; details: Venezuelan equine encephalitis virus, HeLa, read-out: VEEV-TC83 EC50
VEEV nsP2 protease [7] = biological target: T1, VEEV nsP2 protease; assay: biochemical
CHIKV [8] = assay: microbe, parasite or virus in culture; type: cell-based; details: Chikungunya virus, U2OS, read-out: CHIKV EC50
WEEV [9] = assay: microbe, parasite or virus in culture; type: cell-based; details: Western equine encephalitis virus, HeLa, read-out: WEEV EC50
in vitro [10] = details: PAMPA
in vitro [11] = details: SD, rat, microsomes
VEEV nsP2 protease [12] = biological target: T1, VEEV nsP2 protease; type: biochemical
VEEV Trinidad = type: cell-based, Venezuelan equine encephalitis virus
EEEV [13] = type: cell-based, eastern equine encephalitis virus
WEEV [14] = type: cell-based, Western equine encephalitis virus
CHIKV [15] = type: cell-based, Chikungunya virus
VEEV = type: cell-based, Venezuelan equine encephalitis virus
[16] = read-out: VEEV nsP2 PROTEASE k2/Ki
[17] = A549, read-out: VEEV-Trinidad EC50

T1 sequence (P27282 1003-1322 limits assumed): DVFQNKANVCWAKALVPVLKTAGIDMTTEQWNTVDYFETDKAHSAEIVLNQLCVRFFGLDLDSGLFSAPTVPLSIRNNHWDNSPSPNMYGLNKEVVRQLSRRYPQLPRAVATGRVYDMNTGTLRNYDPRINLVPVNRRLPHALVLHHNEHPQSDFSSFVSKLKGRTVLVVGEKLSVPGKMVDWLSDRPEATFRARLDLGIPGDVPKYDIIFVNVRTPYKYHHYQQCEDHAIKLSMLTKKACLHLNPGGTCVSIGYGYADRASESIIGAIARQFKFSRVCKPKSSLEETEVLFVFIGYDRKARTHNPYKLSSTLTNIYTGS

Structure (SMILES) | Rat_SD/Microsomes t1/2 [2] [m] | solubility (physchem) [µg/mL] | EC50 (VEEV-Trinidad; A549) [µM] | CC50 (in vitro [3]; African green monkey) [µM] | CC50 (in vitro [5]) [µM] | EC50 (EEEV [6]) [µM] | EC50 (VEEV-TC83) [µM] | kinact/KI (VEEV nsP2 protease [7]; [16]) [M⁻¹ s⁻¹] | EC50 (WEEV [9]) [µM] | EC50 (VEEV-Trinidad; [17]) [µM] | CC50 (in vitro [3]; human) [µM] | other results
O=c1[nH]c(=O)n(-c2ccccc2F)c(O)c1/C=C1\C=Nc2ccccc21 [MLS001197204-01] | – | – | – | – | – | – | – | – | – | – | – | IC50 (VEEV nsP2 protease [1]; read-out: IC50): 30 ± 20 µM; CC50 (cell viability): > 50 µM; EC50 (VEEV-Trd; read-out: EC50): > 50 µM
CC(C)CCNC(=O)[C@H](CC(C)C)NC(=O)[C@H]1O[C@@H]1C(=O)NCCCO [NCGC00487434-01] | >30 | 22 (≈ 59.2 µM) | 70 to 80 | > 100 | – | – | – | – | – | – | – | –
CCc1ccc2c(c1)C(NC(C)=O)C(=O)N2CCN1CCOCC1 (centres unmarked) [MLS001215951-01] | – | – | – | – | – | – | – | – | – | – | – | IC50 (VEEV nsP2 protease [1]): 18 ± 7 µM; EC50 (VEEV-Trd; Venezuelan equine encephalitis virus): > 50 µM; CC50 (in vitro [4]): > 50 µM
CCCNC(=O)[C@H]1O[C@H]1C(=O)N[C@H](C(=O)N1CCC[C@@H]1C(=O)OC)C(C)CC (some centres unmarked) [NCGC00163431-03] | – | – | – | – | – | – | – | – | – | – | – | concentration at which toxicity / cytotoxicity was seen (cell viability; African green monkey): 100 µM; inhibition (VEEV-infected HeLa cells): 83%; inhibition at 1.562 µM (VEEV-infected HeLa cells; Venezuelan equine encephalitis virus, HeLa): 82.9%; concentration showing inhibition in cell-based assays (VEEV-Trd): < 15 µM
CC(C)CCNC(=O)[C@H](CC(C)C)NC(=O)[C@H]1O[C@@H]1C(=O)NCc1cccc(C#N)c1 [NCGC00488909-01] | – | – | 1.8 | > 100 | > 50 | 43 | 1.48 | 862 | 5.02 | 1.76 | > 50 | Ki (VEEV nsP2 protease [7]): 3 µM; EC50 (CHIKV [8]): 9.85 µM
CC(C)CCNC(=O)[C@H](CC(C)C)NC(=O)[C@H]1O[C@@H]1C(=O)NCc1cccnc1 [NCGC00488907-01] | 6.4 | – | 6 | > 100 | > 50 | < 50 | 5.22 | 86 | 8.76 | 5.97 | > 50 | PAMPA: <4.3 ×10⁻⁶ cm/s; Papp (in vitro [10]): < 4.3 ×10⁻⁶ cm/s; EC50 (CHIKV [8]): 25.9 µM; half-life (in vitro [11]): 6.4 min
CCC(C)C(NC(=O)C1OC1C(=O)NC(CC(C)C)C(=O)NCCC(C)C)C(=O)N1CCCC1C(=O)OCc1ccccc1 (centres unmarked) [NCGC00484087-01] | 1.5 | 4.1 (≈ 6.67 µM) | 8 | > 100 | > 50 | 13.2 | 2.17 | 100 | 5.74 | 7.9 | > 50 | PAMPA: 1089.1 ×10⁻⁶ cm/s; Ki (VEEV nsP2 protease [7]): 5 µM; Papp (in vitro [10]): 1090 ×10⁻⁶ cm/s; half-life (in vitro [11]): 1.5 min
CC(C)CCNC(=O)C(CC(C)C)NC(=O)C1OC1C(=O)O (centres unmarked) [E64c, reference compound] | >30 | 33 (≈ 105 µM) | > 100 | > 100 | – | – | – | – | – | – | – | efficacy in cell-based assays (VEEV-Trd): ineffective; Papp (in vitro [10]): < 1 ×10⁻⁶ cm/s; inhibition in discontinuous assays (SDS-PAGE gels) (VEEV nsP2 protease [12]): partial inhibition
COc1cc(NS(C)(=O)=O)ccc1Nc1c2ccccc2nc2ccccc12 [amsacrine] | – | – | – | – | – | – | – | – | – | – | – | antiviral activity in plaque assays (VEEV Trinidad): notable antiviral activities
N=c1c2c(-c3ccccc3)c(-c3ccccc3)n(Cc3ccccc3)c2ncn1C1CCC(O)CC1 (centres unmarked) [NCGC00247785-13] | – | – | – | – | – | – | – | – | – | – | – | antiviral activity in plaque assays (VEEV Trinidad): notable antiviral activities
CC(C)CCNC(=O)[C@H](CC(C)C)NC(=O)[C@H]1O[C@@H]1C(=O)NCCCCO [NCGC00488906-01] | >30 | 15.9 (≈ 41.2 µM) | 26 | > 100 | > 50 | > 100 | 26.6 | 12 | 20.4 | 26.4 | > 50 | EC50 (CHIKV [8]): 18.5 µM; half-life (in vitro [11]): > 30 min
CC[C@H]1CN2CCc3cc(OC)c(OC)cc3[C@@H]2C[C@@H]1C[C@H]1NCCc2cc(OC)c(OC)cc21 [emetine] | – | – | – | – | – | – | – | – | – | – | – | antiviral activity in plaque assays (VEEV Trinidad): notable antiviral activities
CC(C)CCNC(=O)[C@H](CC(C)C)NC(=O)[C@H]1O[C@@H]1C(=O)NCc1ccc(C#N)cc1 [NCGC00488904-01] | – | – | 4 | > 100 | > 50 | 16.2 | 4.09 | 61 | 5.15 | 4.29 | > 50 | EC50 (CHIKV [8]): 14.8 µM
CCOC(=O)[C@H]1O[C@@H]1C(=O)N[C@@H](CC(C)C)C(=O)NCCC(C)C [E64d] | 1.5 | 24 (≈ 70.1 µM) | – | – | – | – | – | – | – | – | – | Average titer (EEEV [13]): 2.28 × 10^8 and 2.27 × 10^8; effect on titers (EEEV [13]): no effect; Average titer (WEEV [14]): 2.13 × 10^6 and 2.16 × 10^6; effect on titers (WEEV [14]): no effect; effect on titers (CHIKV [15]): minor reductions; Ki (VEEV nsP2 protease [7]): 40 ± 30 µM; k2 (VEEV nsP2 protease [7]; pH 7): 0.10 ± 0.06 min⁻¹; kinact/KI (VEEV nsP2 protease [7]; pH 7, read-out: k2/Ki): 33.3 M⁻¹ s⁻¹; efficacy in cell-based assays (VEEV-Trd): ineffective; effect on titers (VEEV): minor reductions; Papp (in vitro [10]): 89 ×10⁻⁶ cm/s; inhibition in discontinuous assays (SDS-PAGE gels) (VEEV nsP2 protease [12]): complete inhibition
COc1cc2c(cc1OC)C(c1cc(Br)ccc1F)N(C(=O)CCl)CC2 (centres unmarked) [MLS001198393-01] | – | – | – | – | – | – | – | – | – | – | – | IC50 (VEEV nsP2 protease [1]; read-out: IC50): > 200 µM; CC50 (cell viability): > 50 µM; EC50 (VEEV-Trd; read-out: EC50): > 16.7 µM
